Test results: article PMC6428421 (Nature cell biology, 2019)

Molecular target: IRAK1 (Homo sapiens, UniProt P51617)
Assay: KINOMEScan competition kinase-binding assay

Sequence of IRAK1 (P51617 whole entry): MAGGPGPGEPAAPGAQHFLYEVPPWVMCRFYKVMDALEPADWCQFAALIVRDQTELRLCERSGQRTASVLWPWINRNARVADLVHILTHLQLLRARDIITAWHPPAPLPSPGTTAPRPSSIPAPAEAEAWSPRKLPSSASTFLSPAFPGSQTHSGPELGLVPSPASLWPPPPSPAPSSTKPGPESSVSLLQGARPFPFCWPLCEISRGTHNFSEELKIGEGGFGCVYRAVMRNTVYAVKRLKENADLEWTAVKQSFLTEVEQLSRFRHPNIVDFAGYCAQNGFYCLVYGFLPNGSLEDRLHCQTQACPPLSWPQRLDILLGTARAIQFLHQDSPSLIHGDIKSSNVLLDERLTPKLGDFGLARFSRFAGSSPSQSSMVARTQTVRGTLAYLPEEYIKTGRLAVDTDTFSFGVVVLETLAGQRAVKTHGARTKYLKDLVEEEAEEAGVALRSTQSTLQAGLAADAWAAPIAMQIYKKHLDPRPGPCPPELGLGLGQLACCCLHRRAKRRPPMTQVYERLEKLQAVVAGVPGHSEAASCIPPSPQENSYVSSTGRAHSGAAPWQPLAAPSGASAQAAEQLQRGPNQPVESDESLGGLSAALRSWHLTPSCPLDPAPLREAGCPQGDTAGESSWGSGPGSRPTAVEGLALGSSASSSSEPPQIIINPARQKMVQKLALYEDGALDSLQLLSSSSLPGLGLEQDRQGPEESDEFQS

Kd: 5.8 µM
SMILES: COC(=O)Nc1nc2ccc([S+]([O-])c3ccccc3)cc2[nH]1 (stereo not shown) [OXF, oxfendazole]
